Experimental data as given in patent US10947244B2, “Forms of a PI3K delta selective inhibitor for use in pharmaceutical formulations” (Rhizen Pharmaceuticals SA, priority 2014, dated 2021).

Assay: Particle size (PSD) analysis, Malvern Master Sizer 2000 dry powder
Assay type: physicochemical
Conditions: PTSA salt of TGR-1202; average of three experiments
Description: Particle size (PSD) analysis of the PTSA salts of TGR-1202 prepared in Examples 1 and 2 was performed as described below using a Malvern Master Sizer 2000 with the Scirocco 2000 dry powder system. The instrument parameters were: • Particle RI: 1.50 • Absorption index: 0.1 • Obscuration range: 1-5% • Analysis Model: General purpose • Sensitivity: Normal • Air Pressure: 2.0 Bar • Feed rate: 30% • Sample measurement Time: 6 Second • Background measurement Time: 6 Second • Number of measurement cycle: 1
Procedure: 5 g of TGR-1202 was transferred into a sample measuring cell (i.e., Scirocco 2000) and the airflow was started. Laser intensity was maintained more than 70%. Measurement was started and the vibration feed rate was increased in order to achieve the obscuration within the limits. Once the obscuration came within the limit, measurement was recorded. Analysis was performed in triplicate and the results provided are an average of three experiments.

Row | SMILES | d(0.1) [μm] | d(0.5) [μm] | d(0.9) [μm]
1 | CC(C)Oc1ccc(-c2nn([C@@H](C)c3oc4ccc(F)cc4c(=O)c3-c3cccc(F)c3)c3ncnc(N)c23)cc1F [Example 2, (S)-2-(1-(4-amino-3-(3-fluoro-4-isopropoxyphenyl)-1H-pyrazolo[3,4-d]pyrimidin-1-yl)ethyl)-6-fluoro-3-(3-fluorophenyl)-4H-chromen-4-one 4-methyl-benzenesulfonate] | 1.07 | 3.98 | 12.18
2 | CC(C)Oc1ccc(-c2nn([C@@H](C)c3oc4ccc(F)cc4c(=O)c3-c3cccc(F)c3)c3ncnc(N)c23)cc1F [Example 1, (S)-2-(1-(4-amino-3-(3-fluoro-4-isopropoxyphenyl)-1H-pyrazolo[3,4-d]pyrimidin-1-yl)ethyl)-6-fluoro-3-(3-fluorophenyl)-4H-chromen-4-one 4-methyl-benzenesulfonate] | 8.01 | 147.41 | 510.73
